± gives the expanded uncertainty stated by the source.
Legend:
[1] = xn = mol fraction of the nth substance listed; conditions: 313.15 K, 101.3 kPa, Liquid; for viscosity: Capillary tube (Ostwald / Ubbelohde) method; for speed of sound: Sing-around technique in a fixed-path interferometer; for mass density: Vibrating tube method
[2] = excess molar enthalpy (molar enthalpy of mixing); xn = mol fraction of the nth substance listed; conditions: 101.3 kPa, Liquid, Flow calorimetry

`OCC(F)(F)F` [2,2,2-trifluoroethanol] + C1CCOCC1 showed a viscosity ([1]; x2 = 0.2025) of 0.9911 ± 0.0065 mPa·s, a viscosity ([1]; x2 = 0.3024) of 0.891 ± 0.006 mPa·s and a viscosity ([1]; x2 = 0.404) of 0.8127 ± 0.0056 mPa·s. It also gave a viscosity ([1]; x2 = 0.5027) of 0.757 ± 0.0054 mPa·s, a viscosity ([1]; x2 = 0.6069) of 0.7128 ± 0.0052 mPa·s and a viscosity ([1]; x2 = 0.7013) of 0.6832 ± 0.0052 mPa·s. It also gave a viscosity ([1]; x2 = 0.8016) of 0.6642 ± 0.0052 mPa·s, a viscosity ([1]; x2 = 0.9064) of 0.6543 ± 0.0053 mPa·s and a speed of sound ([1]; x2 = 0.0995) of 813.9 ± 1.1 m/s. The speed of sound ([1]; x2 = 0.2) was 845.8 ± 1.2 m/s, the speed of sound ([1]; x2 = 0.3049) was 885 ± 1.2 m/s and the speed of sound ([1]; x2 = 0.4111) was 927.4 ± 1.2 m/s. It also gave a speed of sound ([1]; x2 = 0.504) of 967.4 ± 1.3 m/s, a speed of sound ([1]; x2 = 0.6032) of 1010.4 ± 1.3 m/s and a speed of sound ([1]; x2 = 0.733) of 1070.3 ± 1.4 m/s. The speed of sound ([1]; x2 = 0.8321) was 1116.2 ± 1.4 m/s, the speed of sound ([1]; x2 = 0.8988) was 1149.4 ± 1.5 m/s and the mass density ([1]; x2 = 0.1028) was 1280.8 ± 0.21 kg/m3. The mass density ([1]; x2 = 0.2) was 1217.96 ± 0.24 kg/m3, the mass density ([1]; x2 = 0.3049) was 1157.77 ± 0.27 kg/m3 and the mass density ([1]; x2 = 0.4108) was 1102.63 ± 0.3 kg/m3. It also gave a mass density ([1]; x2 = 0.504) of 1058.19 ± 0.32 kg/m3, a mass density ([1]; x2 = 0.5961) of 1017.26 ± 0.35 kg/m3 and a mass density ([1]; x2 = 0.6986) of 974.97 ± 0.38 kg/m3. It also gave a mass density ([1]; x2 = 0.8321) of 923.77 ± 0.41 kg/m3, a mass density ([1]; x2 = 0.8986) of 899.6 ± 0.42 kg/m3 and an excess molar enthalpy ([2]; 283.15 K, x2 = 0.065) of -0.102 ± 0.00191 kcal/mol. The excess molar enthalpy ([2]; 283.15 K, x2 = 0.127) was -0.178 ± 0.00239 kcal/mol, the excess molar enthalpy ([2]; 283.15 K, x2 = 0.248) was -0.283 ± 0.00359 kcal/mol and the excess molar enthalpy ([2]; 283.15 K, x2 = 0.36) was -0.342 ± 0.0043 kcal/mol. The excess molar enthalpy ([2]; 283.15 K, x2 = 0.466) was -0.362 ± 0.00454 kcal/mol, the excess molar enthalpy ([2]; 283.15 K, x2 = 0.57) was -0.35 ± 0.0043 kcal/mol and the excess molar enthalpy ([2]; 283.15 K, x2 = 0.664) was -0.303 ± 0.00382 kcal/mol. The excess molar enthalpy ([2]; 283.15 K, x2 = 0.755) was -0.243 ± 0.00311 kcal/mol, the excess molar enthalpy ([2]; 283.15 K, x2 = 0.839) was -0.168 ± 0.00239 kcal/mol and the excess molar enthalpy ([2]; 283.15 K, x2 = 0.921) was -0.0829 ± 0.00143 kcal/mol. The excess molar enthalpy ([2]; 283.15 K, x2 = 0.962) was -0.037 ± 0.0012 kcal/mol, the excess molar enthalpy ([2]; 298.15 K, x2 = 0.065) was -0.113 ± 0.00215 kcal/mol and the excess molar enthalpy ([2]; 298.15 K, x2 = 0.127) was -0.204 ± 0.00287 kcal/mol. For the same compound, the excess molar enthalpy ([2]; 298.15 K, x2 = 0.248) was -0.322 ± 0.00406 kcal/mol, the excess molar enthalpy ([2]; 298.15 K, x2 = 0.36) was -0.384 ± 0.00478 kcal/mol and the excess molar enthalpy ([2]; 298.15 K, x2 = 0.466) was -0.404 ± 0.00502 kcal/mol. The excess molar enthalpy ([2]; 298.15 K, x2 = 0.57) was -0.387 ± 0.00478 kcal/mol, the excess molar enthalpy ([2]; 298.15 K, x2 = 0.664) was -0.339 ± 0.0043 kcal/mol and the excess molar enthalpy ([2]; 298.15 K, x2 = 0.755) was -0.268 ± 0.00359 kcal/mol. The excess molar enthalpy ([2]; 298.15 K, x2 = 0.839) was -0.184 ± 0.00263 kcal/mol, the excess molar enthalpy ([2]; 298.15 K, x2 = 0.921) was -0.0908 ± 0.00167 kcal/mol and the excess molar enthalpy ([2]; 298.15 K, x2 = 0.962) was -0.0428 ± 0.00143 kcal/mol. The excess molar enthalpy ([2]; 313.15 K, x2 = 0.065) was -0.114 ± 0.00215 kcal/mol, the excess molar enthalpy ([2]; 313.15 K, x2 = 0.127) was -0.215 ± 0.00311 kcal/mol and the excess molar enthalpy ([2]; 313.15 K, x2 = 0.248) was -0.348 ± 0.00454 kcal/mol. The excess molar enthalpy ([2]; 313.15 K, x2 = 0.36) was -0.421 ± 0.00526 kcal/mol, the excess molar enthalpy ([2]; 313.15 K, x2 = 0.466) was -0.444 ± 0.0055 kcal/mol and the excess molar enthalpy ([2]; 313.15 K, x2 = 0.57) was -0.427 ± 0.00526 kcal/mol. For the same compound, the excess molar enthalpy ([2]; 313.15 K, x2 = 0.664) was -0.374 ± 0.00478 kcal/mol, the excess molar enthalpy ([2]; 313.15 K, x2 = 0.755) was -0.297 ± 0.00382 kcal/mol and the excess molar enthalpy ([2]; 313.15 K, x2 = 0.839) was -0.203 ± 0.00287 kcal/mol. For the same compound, the excess molar enthalpy ([2]; 313.15 K, x2 = 0.921) was -0.0997 ± 0.00191 kcal/mol and the excess molar enthalpy ([2]; 313.15 K, x2 = 0.962) was -0.0466 ± 0.00143 kcal/mol.

Reference: the NIST ThermoML archive (doi:10.1021/je025655p)
